According to publication PMC10703885 (Cell Death & Disease, 2023):
Where two headings read alike, the source gives them in different places.

Columns and labels:
[1] = tested on: HCT116 cells; assay: CCK-8 cell viability assay; type: cell-based; details: for IC50: Homo sapiens
Protocol: (§1) The cells were cultured in 96-well plates at a density of 5 × 10^3 cells/well. Cell viability was assessed with CCK-8 Kit at indicated time post-treatment according to the manufacturer’s instructions. To estimate the viability of the cells, the absorbance of 450 nm (OD450) was measured with a Microplate Reader (BIO-TEK, Inc., Winooski, VT, United States). The IC50 value was calculated by GraphPad Prism 8.0 (San Diego, CA, United States) software.

[2] = tested on: HT29 cells; assay: CCK-8 cell viability assay; type: cell-based; details: Homo sapiens, HT-29, 72 h
Protocol: as §1

[3] = tested on: normal renal epithelial 293T cells; assay: CCK-8 cell viability assay (normal cells); type: cell-based; details: low concentration of HR488B (0.1-1 μM), 72 h
Protocol: as §1

[4] = tested on: HCT116 xenograft; assay: HCT116 xenograft model in nude mice; type: in vivo, BALB/c nude mice
Protocol: (§2) Male BALB/c nude mice (5–6 weeks) were purchased from the Jiesijie Experimental Animal Co. Ltd (Shanghai, China). All mice were maintained under SPF conditions and at constant temperature (25 °C) and relative humidity (65%) with a 12 h light/dark cycle. HCT116 cells (1 × 10^6) were inoculated into 6–7 weeks-old mice subcutaneously. Tumor volumes were evaluated by calipers and calculated using the standard formula: volume = length × width^2 × 0.5. Once tumor volume exceeded approximately 100 mm^3. […] Tumor volume was measured every 2 days. The protocols for animal care and euthanasia were approved by the Institutional Animal Care and Use Committee of Shanghai Ocean University (Shanghai, China).

[5] = Body weight of xenograft mice; type: in vivo, BALB/c nude mice; details: 10 mg/kg/d ip over 21 days
Protocol: as §2

[6] = tested on: HCT116 cells; assay: Colony formation assay; type: cell-based; details: HCT116, 0.2, 0.5 and 1 μM, 14 days
Protocol: (§3) The culture medium was refreshed every other day. Cells were then continuously incubated in a new fresh medium for 10–14 days, the colonies were fixed with methanol for 15 min, stained with 0.5% crystal violet for 15 min, and photographed. Colonies were manually counted using ImageJ software.

[7] = tested on: HT29 cells; assay: Colony formation assay; type: cell-based; details: HT29, 0.2, 0.5 and 1 μM, 14 days
Protocol: as §3

[8] = tested on: acetylated H3/H4 protein in HCT116 cells; assay: Western blot of acetylated H3/H4; type: cell-based; details: HCT116, 0.2, 0.5 and 1 μM, 24 h, compared with SAHA 1 μM
Protocol: (§4) Western blot analysis was performed as in our previous reports. The cells were lysed in RIPA buffer with a complete protease inhibitor cocktail for 10 min on ice followed by centrifugation at 4 °C. The concentration of proteins was determined by the BCA Protein Kit (TIANGEN, Shanghai, China). Equal amounts of total proteins were resuspended in loading buffer, boiled at 100 °C for 5 min, and separated by 10–15% […] gel electrophoresis (SDS-PAGE). Proteins were transferred onto PVDF membranes (Merck Millipore, #IPFL00010, Germany), then the membranes were blocked with 5% non-fat dry milk, and the membranes were incubated with indicated primary antibodies diluted in BSA buffer, overnight at 4 °C. The membranes were washed three times in TBST followed by 1 h incubation with secondary antibodies conjugated with horseradish peroxidase (HRP) at room temperature. Then the membranes were washed before enhanced chemiluminescence. Immunoblots were visualized with the Bio-Rad ChemiDoc XRS system. Quantification was directly performed on the blot using the Image Lab software.

[9] = tested on: acetylated H3/H4 protein in HT29 cells; assay: Western blot of acetylated H3/H4; type: cell-based; details: HT29, 0.2, 0.5 and 1 μM, 24 h, compared with SAHA 1 μM
Protocol: as §4

| IC50 ([1]; HCT-116, HCT116 cells, 72 h, CCK-8, read-out: IC50) | IC50 [2] | IC50 ([1]; HCT-116, 72 h) | Structure (SMILES) | inhibitory effect on cell viability (in-house HDACi library screen) ([1]; HCT116 cells, 2.5 μM, 72 h, CCK-8) | cellular toxicity of 293T cells [3] | average tumor weight ([4]; 10 mg/kg ip, compared with control and SAHA-treated group) | tumor volume ([4]; 10 mg/kg/d ip over 21 days, compared with control group and SAHA treatment group) | body weight of mice [5] | number and size of colonies [6] | number and size of colonies [7] | acetylation of H3 and H4 [8] | acetylation of H3 and H4 [9] |
| --- | --- | --- | --- | --- | --- | --- | --- | --- | --- | --- | --- | --- |
| 170 nM | 590 nM | – | COc1ccc(N(Cc2nc(-c3ccccc3Cl)cs2)C(=O)CCCCCC(=O)NO)cc1 [HR488B] | optimum inhibitory effect | did not observe any significant cellular toxicity | obviously lower | marked reduction in tumor volume | did not decrease notably | obviously reduced the number and size of the colonies | obviously reduced the number and size of the colonies | significantly increased the acetylation of H3 and H4 in a dose-dependent manner | significantly increased the acetylation of H3 and H4 in a dose-dependent manner |
| – | – | 2130 nM | O=C(CCCCCCC(=O)Nc1ccccc1)NO [SAHA, reference compound] | – | – | – | – | did not decrease notably | – | – | – | – |
